Consider one compound from ChEMBL document CHEMBL1127917, “The phosphonate analog of 5-methylthioribose 1--phosphate” (Bioorg Med Chem Lett, 1994).

Active and inactive are the calls of the source. The calls are words filed in the database; no cut-off is given here.

The assay has as its system Klebsiella pneumoniae. Kind of assay: Tested for inhibition of oxygen uptake by the compound included in an extract of Klebsiella pneumoniae along with substrate 1 at the dose of 0.8 mM; No inhibition. Format: functional, organism-based.

Turning to `CSCC1OC(CP(=O)(O)O)[C@H](O)[C@@H]1O` (stereo partly specified), the outcome was inactive.
